# Reference: patent US20100120789A1, “Compound” (priority 2005, published 2010)
# Columns and labels:
# Human 11β-HSD1 = Human 11β-HSD1 (Homo sapiens, UniProt P28845); test: 11β-HSD1 HEK assay (whole HEK 293 cells stably transfected with HSD11B1, SPA); format: cell-based; parameters: expressed in transfected cells; host or cells: HEK 293; settings: for IC50: HEK293, read-out: IC50 (nM) Inhibition of Human 11β-HSD1 (HEK293); for inhibition at 10 µM: HEK293, read-out: % INHIBITION of Human 11 β-HSD1 at 10 μM (HEK)
# Procedure: 11β-HSD1 HEK Assay Protocol (Cell Based Assay)
# 11β-HSD1 activity is measured in whole HEK 293 cells stably transfected with the HSD11B1 gene. Cells are incubated in 96-well microplates in the presence of tritiated substrate. Enzyme activity is determined by measuring the amount of tritated product by scintillation proximity assay (SPA). Assay plates contain internal high and low controls to allow calculation of percentage inhibition.
# 2. When the cells are 80% confluent the medium is removed from each well. 100 μl fresh, serum-free, medium containing ^3H-cortisone and test compound in 1% DMSO is added to each well*. Control wells are also dispensed.
# 3. The plate is incubated at […] for the required time period.
# 4. 50 μl of media is removed from each well and transferred to a microplate containing 100 μl of a pre-incubated mixture of anti-cortisol antibody and SPA bead. The mixture is incubated with gentle shaking until equilibrium is reached, before transferring to a scintillation counter to establish the enzyme activity in each sample.
# 10 μl of compound is dispensed into each well of a 96-well microplate in 10% DMSO at 100 μM concentration. 90 μl media containing ^3H-cortisone is added to each well. The compound/media/substrate mixture is then transferred to the assay plate containing the cells.
# Human 11β-HSD1, sequence (P28845 whole entry): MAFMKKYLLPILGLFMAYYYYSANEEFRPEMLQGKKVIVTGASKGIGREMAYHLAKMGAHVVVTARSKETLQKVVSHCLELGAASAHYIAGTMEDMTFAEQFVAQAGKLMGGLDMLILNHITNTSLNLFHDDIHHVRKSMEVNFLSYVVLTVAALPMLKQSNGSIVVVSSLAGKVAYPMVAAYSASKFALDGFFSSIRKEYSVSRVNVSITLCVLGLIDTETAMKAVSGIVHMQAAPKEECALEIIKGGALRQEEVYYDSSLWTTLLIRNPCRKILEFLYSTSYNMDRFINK
SMILES,inhibition at 10 µM (Human 11β-HSD1),further results
NC(=O)c1ccc(OCC(=O)C23CC4CC(CC(C4)C2)C3)cc1 [Compound 1],,IC50 (Human 11β-HSD1): 117 nM
NC(=O)c1cccc(OCC(=O)C23CC4CC(CC(C4)C2)C3)c1 [Compound 9],,IC50 (Human 11β-HSD1): 1050 nM
CNC(=O)c1cccc(OCC(=O)C23CC4CC(CC(C4)C2)C3)c1 [Compound 10],,IC50 (Human 11β-HSD1): 68 nM
CCNC(=O)c1cccc(OCC(=O)C23CC4CC(CC(C4)C2)C3)c1 [Compound 11],,IC50 (Human 11β-HSD1): 343 nM
CC(C)NC(=O)c1cccc(OCC(=O)C23CC4CC(CC(C4)C2)C3)c1 [Compound 12],,IC50 (Human 11β-HSD1): 1220 nM
CNC(=O)Cc1ccc(OCC(=O)C23CC4CC(CC(C4)C2)C3)cc1 [Compound 13],,IC50 (Human 11β-HSD1): 94 nM
NC(=O)Cc1ccc(OCC(=O)C23CC4CC(CC(C4)C2)C3)cc1 [Compound 15],,IC50 (Human 11β-HSD1): 204 nM
CCNC(=O)Cc1ccc(OCC(=O)C23CC4CC(CC(C4)C2)C3)cc1 [Compound 16],,IC50 (Human 11β-HSD1): 912 nM
CNC(=O)c1ccc(COCC(=O)C23CC4CC(CC(C4)C2)C3)cc1 [Compound 18],,IC50 (Human 11β-HSD1): 250 nM
"CCc1ccc(CN(C)C(=O)CC23CC4CC(CC(C4)C2)C3)s1 [STX2394, 2-Adamantan-1-yl-N-(5-ethyl-thiophen-2-ylmethyl)-N-methyl-acetamide]",,melting point: 54 to 55 °C
"CN(Cc1cc(Br)cs1)C(=O)CC12CC3CC(CC(C3)C1)C2 [STX2396, 2-Adamantan-1-yl-N-(4-bromo-thiophen-2-ylmethyl)-N-methyl-acetamide]",,melting point: 86 to 88.5 °C
"O=C(Nc1cccnc1)C12CC3CC(CC(C3)C1)C2 [STX2399, Adamantane-1-carboxylic acid pyridin-3-ylamide]",,melting point: 129 to 131 °C
"O=C(Nc1nccs1)C12CC3CC(CC(C3)C1)C2 [STX2401, Adamantane-1-carboxylic acid thiazol-2-ylamide]",,melting point: 200 to 201 °C
"O=C(CC12CC3CC(CC(C3)C1)C2)N1CCN(Cc2ccc(Cl)cc2)CC1 [STX2402, 2-Adamantan-1-yl-1-[4-(4-chloro-benzyl)-piperazin-1-yl]-ethanone]",,melting point: 119 to 121 °C
"Cc1cccc(CN2CCN(C(=O)CC34CC5CC(CC(C5)C3)C4)CC2)c1 [STX2403, 2-Adamantan-1-yl-1-[4-(3-methyl-benzyl)-piperazin-1-yl]-ethanone]",,melting point: 86 to 88 °C
"O=C(CC12CC3CC(CC(C3)C1)C2)N1CCN(c2ccc(Cl)cc2)CC1 [STX2404, 2-Adamantan-1-yl-1-[4-(4-chloro-phenyl)-piperazin-1-yl]-ethanone]",,melting point: 112.5 to 115 °C
"CN(Cc1ccsc1)C(=O)CC12CC3CC(CC(C3)C1)C2 [STX2406, 2-Adamantan-1-yl-N-methyl-N-thiophen-3-ylmethyl-acetamide]",,melting point: 69 to 71 °C
"CN(Cc1cccn1C)C(=O)CC12CC3CC(CC(C3)C1)C2 [STX2407, 2-Adamantan-1-yl-N-methyl-N-(1-methyl-1H-pyrrol-2-ylmethyl)-acetamide]",,melting point: 75 to 76.5 °C
"CN(Cc1cccnc1)C(=O)CC12CC3CC(CC(C3)C1)C2 [STX2409, 2-Adamantan-1-yl-N-methyl-N-pyridin-3-ylmethyl-acetamide]",,melting point: 67 to 68.5 °C
"O=C(NCc1cccc([N+](=O)[O-])c1)C12CC3CC(CC(C3)C1)C2 [STX2411, Adamantane-1-carboxylic acid 3-nitro-benzylamide]",,melting point: 145.5 to 147 °C
O=S(=O)(NC12CC3CC(CC(C3)C1)C2)c1cc(Cl)ccc1Cl [compound 1342],20 to 60%,
Cc1c(Cl)cccc1S(=O)(=O)NC12CC3CC(CC(C3)C1)C2 [compound 1343],20 to 60%,
Cc1c(Cl)cccc1S(=O)(=O)NCC12CC3CC(CC(C3)C1)C2 [compound 1370],20 to 60%,
O=S(=O)(NCC12CC3CC(CC(C3)C1)C2)c1ccc(-c2ccccc2)cc1 [compound 1371],20 to 60%,

SMILES,inhibition at 10 µM (Human 11β-HSD1),further results
Cc1nc2cc(NC(=O)CC34CC5CC(CC(C5)C3)C4)ccc2s1 [compound 1566],20 to 60%,
O=C(NCc1cccs1)C1CCCCC1 [compound 1638],20 to 60%,
CC(C)(C)CC(=O)NCc1cccs1 [compound 1639],20 to 60%,
CC(C(=O)NCc1cccs1)(c1ccccc1)c1ccccc1 [compound 1640],20 to 60%,
CC1(C(=O)NCc2cccs2)CC1 [compound 1641],20 to 60%,
CC1(C(=O)NCc2cccs2)CCCCC1 [compound 1642],20 to 60%,
O=C(NCc1cccs1)C12CC3CC(CC1C3)C2 [compound 1648],> 60%,
CC(C(=O)NCCc1cccs1)(c1ccccc1)c1ccccc1 [compound 1650],< 20%,
O=C(NCCc1cccs1)C1(c2ccc(Cl)cc2)CCCC1 [compound 1651],< 20%,
CC(C)(C)CC(=O)NCCc1cccs1 [compound 1652],20 to 60%,
CC1(C(=O)NCCc2cccs2)CC1 [compound 1654],20 to 60%,
CC1(C(=O)NCCc2cccs2)CCCCC1 [compound 1655],> 60%,
O=C(NCCc1cccs1)C12CC3CC(CC1C3)C2 [compound 1656],> 60%,
Cc1ccc(Cc2noc(C34CC5CC(CC(C5)C3)C4)n2)cc1 [compound 1660],20 to 60%,
CN(Cc1cccs1)C(=O)CC12CC3CC(CC(C3)C1)C2 [compound 1661],> 60%,
O=C(CC12CC3CC(CC(C3)C1)C2)NCc1ccco1 [compound 1662],> 60%,
Cn1cccc1CNC(=O)CC12CC3CC(CC(C3)C1)C2 [compound 1663],> 60%,
Cc1ccc(Cc2noc(CC34CC5CC(CC(C5)C3)C4)n2)cc1 [compound 1664],20 to 60%,
CC12CC3CC(C)(C1)CC(C(=O)NCc1cccs1)(C3)C2 [compound 1671],> 60%,
CC12CC3CC(C)(C1)CC(C(=O)NCCc1cccs1)(C3)C2 [compound 1672],> 60%,
CC(C)(C)C(=O)NCc1cccs1 [compound 1673],20 to 60%,
CC(C)(C)C(=O)NCCc1cccs1 [compound 1674],20 to 60%,
O=C(NCc1cccs1)C12CC3CC(CC(O)(C3)C1)C2 [compound 1675],< 20%,
O=C(NCCc1cccs1)C12CC3CC(CC(O)(C3)C1)C2 [compound 1676],> 60%,

SMILES,inhibition at 10 µM (Human 11β-HSD1),further results
c1csc(Cc2noc(C34CC5CC(CC(C5)C3)C4)n2)c1 [compound 1687],20 to 60%,
O=C(NCc1cc2ccccc2s1)C12CC3CC(CC(C3)C1)C2 [compound 1688],< 20%,
O=C(NCc1csc2ccccc12)C12CC3CC(CC(C3)C1)C2 [compound 1689],20 to 60%,
O=C(CC12CC3CC(CC(C3)C1)C2)NCc1cc2ccccc2s1 [compound 1690],20 to 60%,
O=C(CC12CC3CC(CC(C3)C1)C2)NCc1csc2ccccc12 [compound 1691],20 to 60%,
O=C(COCc1cccs1)C12CC3CC(CC(C3)C1)C2 [compound 1692],> 60%,
CN(Cc1cccs1)C(=O)C1CCCCC1 [compound 1693],> 60%,
CN(Cc1cccs1)C(=O)CC(C)(C)C [compound 1694],> 60%,
CN(Cc1cccs1)C(=O)C(C)(C)C [compound 1695],< 20%,
CN(Cc1cccs1)C(=O)C1(c2ccc(Cl)cc2)CCCC1 [compound 1696],> 60%,
CN(Cc1cccs1)C(=O)C1(C)CC1 [compound 1697],< 20%,
CN(Cc1cccs1)C(=O)C(C)(c1ccccc1)c1ccccc1 [compound 1698],20 to 60%,
CN(Cc1cccs1)C(=O)C1(C)CCCCC1 [compound 1699],> 60%,
CN(Cc1cccs1)C(=O)C12CC3CC(CC(C3)C1)C2 [compound 1700],> 60%,
O=C(NCc1cccs1)[C@H]1CC2C=CC1C2 (stereo partly drawn) [compound 1706],20 to 60%,
O=C(NCCc1cccs1)[C@H]1CC2C=CC1C2 (stereo partly drawn) [compound 1707],20 to 60%,
O=C(NCCc1cccs1)[C@@H]1CC2C=CC1C2 (stereo partly drawn) [compound 1708],20 to 60%,
CN(Cc1cccs1)C(=O)[C@H]1CC2C=CC1C2 (stereo partly drawn) [compound 1709],> 60%,
CN(Cc1cccs1)C(=O)[C@@H]1CC2C=CC1C2 (stereo partly drawn) [compound 1710],> 60%,
O=C(NC12CC3CC(CC(C3)C1)C2)OCc1cccs1 [compound 1711],> 60%,
O=C(NC12CC3CC(CC(C3)C1)C2)OCCc1cccs1 [compound 1712],> 60%,
O=C(NCc1cccs1)NC12CC3CC(CC(C3)C1)C2 [compound 1713],20 to 60%,
O=C(NCCc1cccs1)NC12CC3CC(CC(C3)C1)C2 [compound 1714],> 60%,
O=C(N1CCc2sccc2C1)C12CC3CC(CC(C3)C1)C2 [compound 1721],> 60%,
